Assay results reported in ChEMBL document CHEMBL5257132, “Discovery of a Novel Series of Potent SHP2 Allosteric Inhibitors” (ACS Med Chem Lett, 2023).
In brackets after ≈: the same amount, converted by molar mass.

Legend:
[1] = Inhibition of ERK phosphorylation in human KYSE520 cells incubated for 2 hrs by TR-FRET assay; format: cell-based; conditions: KYSE-520, 2 h
[2] = target: T1, Tyrosine-protein phosphatase non-receptor type 11 (Homo sapiens, UniProt Q06124); test: Allosteric inhibition of recombinant human SHP2 using IRS1 peptide and DiFMUP as substrate incubated for 30 mins followed by DiFMUP addition and measured after 30 mins by fluorescence based microplate reader analysis
T1 sequence (Q06124 whole entry): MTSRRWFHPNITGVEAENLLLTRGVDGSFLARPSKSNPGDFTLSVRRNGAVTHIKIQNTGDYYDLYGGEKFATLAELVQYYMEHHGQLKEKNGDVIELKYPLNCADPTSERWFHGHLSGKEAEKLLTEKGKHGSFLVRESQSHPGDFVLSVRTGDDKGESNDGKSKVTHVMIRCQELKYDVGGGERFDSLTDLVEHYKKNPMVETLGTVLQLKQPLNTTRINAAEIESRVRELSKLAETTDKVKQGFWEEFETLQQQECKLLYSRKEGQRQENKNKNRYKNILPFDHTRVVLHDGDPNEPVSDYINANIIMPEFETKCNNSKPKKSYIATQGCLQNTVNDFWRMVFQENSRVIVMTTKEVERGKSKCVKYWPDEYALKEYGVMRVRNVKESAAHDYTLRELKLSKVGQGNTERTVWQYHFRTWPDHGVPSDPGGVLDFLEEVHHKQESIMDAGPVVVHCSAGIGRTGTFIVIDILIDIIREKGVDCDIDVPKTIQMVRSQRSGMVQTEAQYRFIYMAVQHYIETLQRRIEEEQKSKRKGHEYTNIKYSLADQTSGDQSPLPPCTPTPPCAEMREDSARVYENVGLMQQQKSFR

[3] = target: Voltage-gated inwardly rectifying potassium channel KCNH2 (Homo sapiens, UniProt Q12809); test: Inhibition of human ERG by fluorescence polarization assay; format: toxicity
KYSE-520 cell line = test: Antiproliferative activity against human KYSE520 cells assessed as inhibition of cell proliferation incubated for 96 hrs by CellTiter-Glo reagent based assay; format: functional; conditions: KYSE-520, 96 h
[4] = Apparent permeability of compound at pH 7.4 at 5 uM incubated for 4 hrs by PAMPA based LC-MS/MS analysis; format: ADME
[5] = Kinetic solubility of compound in FeSSIF by LCMS analysis; format: ADME; conditions: read-out: Kinetic_solubility
[6] = Clearance in Sprague-Dawley rat plasma at 0.5 mg/kg, iv and measured upto 24 hrs by LC-MS/MS analysis; format: ADME, organism-based
[7] = Efflux ratio of apparent permeability […] in dog MDCK-MDR1 cells by LC-MS/MS analysis; format: ADME, cell-based, Canis lupus familiaris
[8] = Metabolic stability in Sprague-Dawley rat liver microsomes assessed as intrinsic clearance at 1 uM and measured upto 60 mins in presence of NADPH as cofactor by LC-MS/MS analysis; format: ADME, Microsome; conditions: read-out: CLH
[9] = Oral bioavailability in Sprague-Dawley rat plasma at 1 mg/kg administered as 60:20:20 PEG400/DMSO/H2O formulation and measured upto 24 hrs by LC-MS/MS analysis; format: ADME, organism-based
[10] = AUC in Sprague-Dawley rat plasma at 1 mg/kg,po administered as 60:20:20 PEG400/DMSO/H2O formulation and measured upto 24 hrs in presence of Elacridar by LC-MS/MS analysis; format: ADME, organism-based; set-up: time < 24 hrs, dose 1 mg/kg, route po; conditions: with Elacridar (dose not stated)
[11] = Metabolic stability in human liver microsomes assessed as intrinsic clearance at 1 uM and measured upto 60 mins in presence of NADPH as cofactor by LC-MS/MS analysis; format: ADME, Microsome; conditions: read-out: CLH
[12] = Cmax in Sprague-Dawley rat plasma at 1 mg/kg, po administered as 60:20:20 PEG400/DMSO/H2O formulation and measured upto 24 hrs by LC-MS/MS analysis; format: ADME, organism-based; set-up: dose 1 mg/kg, time < 24 hrs, route po
[13] = AUC in Sprague-Dawley rat plasma at 1 mg/kg,po administered as 50:50 PEG400/Labrasol formulation and measured upto 24 hrs by LC-MS/MS analysis; format: ADME, organism-based; set-up: dose 1 mg/kg, time < 24 hrs, route po
[14] = Kinetic solubility of compound in FaSSGF by LCMS analysis; format: ADME; conditions: read-out: Kinetic_solubility
[15] = AUC in Sprague-Dawley rat plasma at 1 mg/kg,po administered as 60:20:20 PEG400/DMSO/H2O formulation and measured upto 24 hrs by LC-MS/MS analysis; format: ADME, organism-based; set-up: time < 24 hrs, dose 1 mg/kg, route po
[16] = Kinetic solubility of compound in FaSSIF by LCMS analysis; format: ADME; conditions: read-out: Kinetic_solubility
[17] = Volume of distribution at steady state in Sprague-Dawley rat plasma at 0.5 mg/kg, iv and measured upto 24 hrs by LC-MS/MS analysis; format: ADME, organism-based; conditions: read-out: Vdss
[18] = Apparent permeability of compound in dog MDCK-MDR1 cells by LC-MS/MS analysis; format: ADME, cell-based, Canis lupus familiaris
[19] = Half life in Sprague-Dawley rat plasma at 0.5 mg/kg, iv and measured upto 24 hrs by LC-MS/MS analysis; format: ADME, organism-based

Sequence of Voltage-gated inwardly rectifying potassium channel KCNH2 (Q12809 whole entry): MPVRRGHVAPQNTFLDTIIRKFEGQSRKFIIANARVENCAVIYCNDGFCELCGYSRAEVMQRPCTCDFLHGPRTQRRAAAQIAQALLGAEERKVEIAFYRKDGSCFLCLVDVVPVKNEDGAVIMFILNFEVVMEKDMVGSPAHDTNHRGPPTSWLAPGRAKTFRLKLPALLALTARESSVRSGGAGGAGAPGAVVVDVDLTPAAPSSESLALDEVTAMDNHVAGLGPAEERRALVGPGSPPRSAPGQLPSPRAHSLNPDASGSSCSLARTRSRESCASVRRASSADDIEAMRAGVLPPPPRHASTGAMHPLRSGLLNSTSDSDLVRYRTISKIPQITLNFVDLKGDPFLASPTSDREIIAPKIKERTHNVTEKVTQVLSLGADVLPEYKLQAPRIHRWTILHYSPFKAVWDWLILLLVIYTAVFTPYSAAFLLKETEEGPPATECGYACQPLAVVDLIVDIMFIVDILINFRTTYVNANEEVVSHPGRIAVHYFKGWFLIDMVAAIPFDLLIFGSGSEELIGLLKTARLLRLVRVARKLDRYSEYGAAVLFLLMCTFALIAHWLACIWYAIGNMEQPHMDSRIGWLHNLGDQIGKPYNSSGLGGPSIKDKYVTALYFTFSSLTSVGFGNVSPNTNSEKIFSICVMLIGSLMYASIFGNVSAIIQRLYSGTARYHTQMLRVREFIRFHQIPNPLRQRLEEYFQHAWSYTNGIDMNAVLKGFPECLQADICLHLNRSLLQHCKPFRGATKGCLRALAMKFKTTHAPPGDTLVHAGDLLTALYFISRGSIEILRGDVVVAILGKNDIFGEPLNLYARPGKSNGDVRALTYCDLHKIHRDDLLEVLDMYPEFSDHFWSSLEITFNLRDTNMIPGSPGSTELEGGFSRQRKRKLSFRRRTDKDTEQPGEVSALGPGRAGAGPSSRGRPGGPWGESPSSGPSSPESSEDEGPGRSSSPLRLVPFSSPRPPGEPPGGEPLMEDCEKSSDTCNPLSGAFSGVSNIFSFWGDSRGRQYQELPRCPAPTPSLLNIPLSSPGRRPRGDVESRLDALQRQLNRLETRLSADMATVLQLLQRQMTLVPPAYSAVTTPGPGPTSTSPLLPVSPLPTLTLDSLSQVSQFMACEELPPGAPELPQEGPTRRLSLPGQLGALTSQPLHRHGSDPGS

Structure (SMILES)	IC50 [1] [µM]	IC50 [2] [µM]	IC50 [3] [µM]	further results
NC[C@]1(c2ccccn2)[C@@H]2CCN(c3cnc(Sc4cccnc4C(F)(F)F)c(N)n3)C[C@@H]21	0.02	0.068		
Cc1csc([C@@]2(CN)[C@@H]3CCN(c4cnc(Sc5cccnc5C(F)(F)F)c(N)n4)C[C@@H]32)n1	0.009	0.065		
Cn1cc2c(Cl)c(-c3n[nH]c4nc(N5C[C@@H]6[C@H](C5)[C@@]6(CN)c5nc(C(F)(F)F)cs5)cnc34)ccc2n1	0.021	0.012	> 30	IC50 (KYSE-520 cell line): 0.231 µM
Cn1cc2c(Cl)c(-c3n[nH]c4nc(N5C[C@@H]6[C@H](C5)[C@@]6(CN)c5cnsn5)cnc34)ccc2n1	0.03	0.004	> 30	
N[C@]1(c2ccccc2)[C@@H]2CCN(c3cnc4c(-c5cccc(Cl)c5Cl)n[nH]c4n3)C[C@@H]21		1.46		
Cc1csc([C@@]2(CN)[C@@H]3CN(c4cnc5c(-c6ccn7nccc7c6Cl)n[nH]c5n4)C[C@@H]32)n1	0.065	0.004	0.235	
Cc1csc([C@@]2(CN)[C@@H]3CCN(c4cnc5c(-c6ccn7nccc7c6Cl)n[nH]c5n4)C[C@@H]32)n1	0.022	0.003	0.012	
NC[C@]1(c2ccsc2)[C@@H]2CCN(c3cnc4c(-c5cccnc5C(F)(F)F)n[nH]c4n3)C[C@@H]21	> 0.666	0.034	5.56	
NC[C@]1(c2ccsc2)[C@@H]2CCN(c3nc4nc(Sc5cccnc5C(F)(F)F)cnc4[nH]3)C[C@@H]21	> 1.33	0.054		
Cc1csc([C@@]2(CN)[C@@H]3CCN(c4nc5nc(Sc6cccnc6C(F)(F)F)cnc5[nH]4)C[C@@H]32)n1	0.21	0.009		
Cc1csc([C@]2(CN)[C@@H]3CCN(c4cnc5c(-c6cccc(Cl)c6Cl)n[nH]c5n4)C[C@@H]32)n1	0.028	0.003	0.058	Papp at 4 h, 5 µM [4]: 17.5 nm/s
Cn1cc2c(Cl)c(-c3n[nH]c4nc(N5C[C@@H]6[C@H](C5)[C@@]6(CN)c5ccccc5)cnc34)ccc2n1	0.07	0.009	5.35	
Cc1csc([C@@]2(CN)[C@@H]3CN(c4cnc5c(-c6ccc7nn(C)cc7c6Cl)n[nH]c5n4)C[C@@H]32)n1	0.024	0.005	> 30	solubility kinetic [5]: 168 µM (≈ 82.7 µg/mL); clearance [6]: 0.972 L/h/kg; Ratio [7]: 0.7; microsomal CLint at 1 µM [8]: 25 µL/min/mg; bioavailability [9]: 1.2%; AUC at 24 h [10]: 580 nM·h; microsomal CLint at 1 µM [11]: 13.5 µL/min/mg; Cmax [12]: 0.01 µM; AUC at 24 h [13]: 50 nM·h; IC50 (KYSE-520 cell line): 0.166 µM; solubility kinetic [14]: 175 µM (≈ 86.1 µg/mL); AUC at 24 h [15]: 10 nM·h; solubility kinetic [16]: 124 µM (≈ 61 µg/mL); Vd [17]: 1 L/kg; Papp [18]: 92 nm/s; half-life [19]: 1.9 h
NC[C@]1(c2ccccc2)[C@@H]2CN(c3nc4nc(Sc5cccnc5C(F)(F)F)cnc4[nH]3)C[C@@H]21		> 8		
Cc1csc([C@@]2(CN)[C@@H]3CCN(c4cnc5c(-c6cccnc6C(F)(F)F)n[nH]c5n4)C[C@@H]32)n1	> 0.666	0.055	5.06	
Cc1csc([C@@]2(CN)[C@@H]3CCN(c4cnc5c(-c6cccc(Cl)c6Cl)n[nH]c5n4)C[C@@H]32)n1 (racemic)	0.071	0.006	0.25	
NC[C@]1(c2ccccc2)[C@@H]2CCN(c3nc4nc(Sc5cccnc5C(F)(F)F)cnc4[nH]3)C[C@@H]21	> 1.33	0.094		
Cc1csc([C@]2(CN)[C@@H]3CN(c4cnc5c(-c6cccc(Cl)c6Cl)n[nH]c5n4)CC[C@@H]32)n1		0.37	0.769	
Cc1nc(N2CCC3(CC2)CO[C@@H](C)[C@H]3N)c(CO)nc1-c1cccc(Cl)c1Cl	0.022		3.35	IC50 (KYSE-520 cell line): 4.55 µM
